Patent publication US20240092758A1, “IMIDAZOLO INDAZOLE COMPOUNDS AS JAK INHIBITORS” (Theravance Biopharma R&D IP, LLC, priority 2021, published 2024)

Experiments:
[1] = test system: IL-13 induced STAT6 phosphorylation in BEAS-2B human lung epithelial cells; experiment: Cellular JAKI potency assay (BEAS-2B); assay type: cell-based; settings: Homo sapiens, BEAS-2B, BEAS-2B cells, read-out: BEAS2B pIC50 (converted)
Summary of the method: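 AlphaLISA SureFire detection of Tyr641 pSTAT6 in lysates gave IC50s (4-parameter fit, expressed as pIC50). Cells: human BEAS-2B, exposed 1 h at 37 °C to compound dose series at 0.1% DMSO, then 30 min to IL-13 added at 80 ng/mL in HEPES-buffered HBSS with BSA.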

JAK1 = JAK1 (Homo sapiens (Human), UniProt P23458); experiment: Biochemical JAK kinase assay (LanthaScreen), JAK1; settings: for Ki: read-out: JAK1 pKi (converted)
Chain of JAK1 (P23458 whole entry): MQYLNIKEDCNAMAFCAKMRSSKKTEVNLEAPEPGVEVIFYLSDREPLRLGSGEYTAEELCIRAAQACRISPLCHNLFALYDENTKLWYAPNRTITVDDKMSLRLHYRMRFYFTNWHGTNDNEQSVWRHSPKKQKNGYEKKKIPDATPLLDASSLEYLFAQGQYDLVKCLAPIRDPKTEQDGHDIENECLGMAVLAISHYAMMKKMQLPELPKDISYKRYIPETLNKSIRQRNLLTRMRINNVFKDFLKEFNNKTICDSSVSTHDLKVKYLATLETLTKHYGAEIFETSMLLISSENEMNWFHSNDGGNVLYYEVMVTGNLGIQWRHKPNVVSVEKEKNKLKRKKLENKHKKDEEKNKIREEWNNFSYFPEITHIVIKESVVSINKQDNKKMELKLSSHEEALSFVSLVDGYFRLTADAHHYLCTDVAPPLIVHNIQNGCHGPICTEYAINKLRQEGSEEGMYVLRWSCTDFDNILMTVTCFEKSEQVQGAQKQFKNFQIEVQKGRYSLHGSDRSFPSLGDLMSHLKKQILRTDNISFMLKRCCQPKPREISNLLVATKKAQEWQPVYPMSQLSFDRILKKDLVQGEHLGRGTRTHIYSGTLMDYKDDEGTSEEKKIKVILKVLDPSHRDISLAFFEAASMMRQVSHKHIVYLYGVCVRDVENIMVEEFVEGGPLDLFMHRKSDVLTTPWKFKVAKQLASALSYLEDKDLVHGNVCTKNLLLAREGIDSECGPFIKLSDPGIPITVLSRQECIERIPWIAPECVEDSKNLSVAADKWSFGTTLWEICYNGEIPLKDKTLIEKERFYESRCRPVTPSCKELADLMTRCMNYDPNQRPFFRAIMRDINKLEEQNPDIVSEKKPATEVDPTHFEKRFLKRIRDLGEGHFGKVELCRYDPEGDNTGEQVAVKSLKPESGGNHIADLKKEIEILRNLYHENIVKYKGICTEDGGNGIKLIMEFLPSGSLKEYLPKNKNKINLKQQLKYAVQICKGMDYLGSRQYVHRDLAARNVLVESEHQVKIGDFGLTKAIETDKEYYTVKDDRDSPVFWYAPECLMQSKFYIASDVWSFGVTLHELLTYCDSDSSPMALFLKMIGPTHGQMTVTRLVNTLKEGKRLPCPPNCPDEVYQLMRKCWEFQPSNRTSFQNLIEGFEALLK
Summary of the method: (§1)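 LanthaScreen format: phospho-STAT1 (pTyr701) detected with 2 nM Tb antibody after 10 mM EDTA quench. Kinase step used Km-level ATP and 200 nM STAT1 peptide, 1 h at ambient after 1 h pre-incubation. Inhibition fitted to IC50, reported as pKi.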

TYK2 = TYK2 (Homo sapiens (Human), UniProt P29597); experiment: Biochemical JAK kinase assay (LanthaScreen), Tyk2; settings: read-out: Tyk2 pKi (converted)
Chain of TYK2 (P29597 whole entry): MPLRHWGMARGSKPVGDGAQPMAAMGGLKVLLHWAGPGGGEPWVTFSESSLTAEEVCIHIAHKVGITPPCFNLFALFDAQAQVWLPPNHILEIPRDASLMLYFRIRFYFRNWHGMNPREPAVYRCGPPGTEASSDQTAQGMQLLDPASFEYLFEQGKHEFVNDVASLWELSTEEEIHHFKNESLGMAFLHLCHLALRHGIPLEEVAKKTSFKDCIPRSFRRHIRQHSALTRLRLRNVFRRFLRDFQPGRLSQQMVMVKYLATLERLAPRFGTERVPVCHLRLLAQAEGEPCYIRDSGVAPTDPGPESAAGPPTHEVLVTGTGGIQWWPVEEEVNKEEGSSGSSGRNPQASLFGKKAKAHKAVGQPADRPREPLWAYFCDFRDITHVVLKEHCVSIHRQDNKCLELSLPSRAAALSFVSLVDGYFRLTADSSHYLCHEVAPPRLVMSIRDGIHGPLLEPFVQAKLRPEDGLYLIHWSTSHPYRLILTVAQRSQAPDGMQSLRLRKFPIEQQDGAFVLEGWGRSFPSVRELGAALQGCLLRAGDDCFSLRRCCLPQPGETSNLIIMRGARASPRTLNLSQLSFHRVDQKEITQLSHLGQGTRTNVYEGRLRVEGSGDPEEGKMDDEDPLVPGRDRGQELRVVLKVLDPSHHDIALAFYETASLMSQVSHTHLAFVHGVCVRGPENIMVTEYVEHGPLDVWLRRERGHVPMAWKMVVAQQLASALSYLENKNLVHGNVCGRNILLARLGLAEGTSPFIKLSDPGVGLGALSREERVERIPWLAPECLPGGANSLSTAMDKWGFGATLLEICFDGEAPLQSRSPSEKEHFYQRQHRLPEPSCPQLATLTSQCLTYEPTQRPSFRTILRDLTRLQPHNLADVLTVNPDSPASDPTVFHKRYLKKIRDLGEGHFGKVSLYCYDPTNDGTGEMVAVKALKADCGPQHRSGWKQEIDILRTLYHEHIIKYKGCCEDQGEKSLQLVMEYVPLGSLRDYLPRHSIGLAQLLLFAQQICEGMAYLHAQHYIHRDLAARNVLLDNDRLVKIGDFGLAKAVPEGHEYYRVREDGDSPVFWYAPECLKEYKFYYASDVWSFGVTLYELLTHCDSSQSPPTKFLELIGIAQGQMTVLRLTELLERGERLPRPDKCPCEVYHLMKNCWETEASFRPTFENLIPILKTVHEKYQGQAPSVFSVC
Experimental: A panel of four LanthaScreen JAK biochemical assays (JAK1, 2, 3 and Tyk2) were carried in a common kinase reaction buffer (50 mM HEPES, pH 7.5, 0.01% Brij-35, 10 mM MgCl2, and 1 mM EGTA). Recombinant GST-tagged JAK enzymes and a GFP-tagged STAT1 peptide substrate were obtained from Life Technologies.
Serially diluted compounds were pre-incubated with each of the four JAK enzymes and the substrate in white 384-well microplates (Corning) at ambient temperature for 1 h. ATP was subsequently added to initiate the kinase reactions in 10 μL total volume, with 1% DMSO. The final enzyme concentrations for JAK1, 2, 3 and Tyk2 are 4.2 nM, 0.1 nM, 1 nM, and 0.25 nM respectively; the corresponding Km ATP concentrations used are 25 μM, 3 μM, 1.6 μM, and 10 μM; while the substrate concentration is 200 nM for all four assays. Kinase reactions were allowed to proceed for 1 hour at ambient temperature before a 10 μL preparation of EDTA (10 mM final concentration) and Tb-anti-pSTAT1 (pTyr701) antibody (Life Technologies, 2 nM final concentration) in TR-FRET dilution buffer (Life Technologies) was added. The plates were allowed to incubate at ambient temperature for 1 h before being read on the EnVision reader (Perkin Elmer). Emission ratio signals (520 nm/495 nm) were recorded and utilized to calculate the percent inhibition values based on DMSO and background controls.
For dose-response analysis, percent inhibition data were plotted vs. compound concentrations, and IC50 values were determined from a 4-parameter robust fit model with the Prism software (GraphPad Software). Results were expressed as pIC50 (negative logarithm of IC50) and subsequently converted to pKi (negative logarithm of dissociation constant, Ki) using the Cheng-Prusoff equation.
Test compounds having a lower Ki value or higher pKi value in the four JAK assays show greater inhibition of JAK activity.

JAK2 = JAK2 (Homo sapiens (Human), UniProt O60674); experiment: Biochemical JAK kinase assay (LanthaScreen), JAK2; settings: for Ki: read-out: JAK2 pKi (converted)
Chain of JAK2 (O60674 whole entry): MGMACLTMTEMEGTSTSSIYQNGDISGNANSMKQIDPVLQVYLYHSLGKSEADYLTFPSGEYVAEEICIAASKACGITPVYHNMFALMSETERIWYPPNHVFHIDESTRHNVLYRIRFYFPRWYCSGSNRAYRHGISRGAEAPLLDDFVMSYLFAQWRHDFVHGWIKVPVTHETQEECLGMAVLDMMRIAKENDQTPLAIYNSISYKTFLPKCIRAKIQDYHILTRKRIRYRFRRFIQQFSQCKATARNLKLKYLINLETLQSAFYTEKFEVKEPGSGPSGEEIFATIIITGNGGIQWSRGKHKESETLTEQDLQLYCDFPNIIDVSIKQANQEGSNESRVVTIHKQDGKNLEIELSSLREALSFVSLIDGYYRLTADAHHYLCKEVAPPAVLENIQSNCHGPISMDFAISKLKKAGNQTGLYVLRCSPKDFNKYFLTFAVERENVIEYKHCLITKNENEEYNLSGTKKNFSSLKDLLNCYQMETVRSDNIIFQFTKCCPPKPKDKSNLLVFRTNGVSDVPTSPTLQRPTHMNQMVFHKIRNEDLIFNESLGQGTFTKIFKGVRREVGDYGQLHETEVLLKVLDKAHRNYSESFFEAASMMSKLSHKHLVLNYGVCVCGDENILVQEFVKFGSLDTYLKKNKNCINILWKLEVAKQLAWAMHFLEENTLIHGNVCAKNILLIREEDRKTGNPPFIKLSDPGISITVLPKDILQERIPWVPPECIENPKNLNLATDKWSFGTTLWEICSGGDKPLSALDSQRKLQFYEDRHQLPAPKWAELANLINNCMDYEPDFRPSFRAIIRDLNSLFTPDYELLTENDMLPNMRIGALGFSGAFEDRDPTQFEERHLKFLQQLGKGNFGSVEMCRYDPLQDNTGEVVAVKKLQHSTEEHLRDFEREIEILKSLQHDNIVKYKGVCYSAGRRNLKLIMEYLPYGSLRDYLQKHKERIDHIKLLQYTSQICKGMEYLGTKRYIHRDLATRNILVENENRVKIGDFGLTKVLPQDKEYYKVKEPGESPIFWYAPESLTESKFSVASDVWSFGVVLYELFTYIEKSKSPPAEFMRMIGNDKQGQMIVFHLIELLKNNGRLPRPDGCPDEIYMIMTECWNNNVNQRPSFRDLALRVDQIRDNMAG
Summary of the method: as §1

Row | Compound | IC50 [1] | Ki (JAK1) | Ki (TYK2) | Ki (JAK2) | JAK2 pKi (JAK2) | JAK1 pKi (JAK1)
1 | CCc1cc(O)ccc1-c1ccc2c(-c3nc(C4=CCCN(CCN5CCOCC5)C4)c[nH]3)n[nH]c2c1F [Example 198] | 10 to 31.6 nM | 0.1 to 1 nM | 1 to 10 nM | 0.1 to 1 nM | – | –
2 | CCc1cc(O)ccc1-c1ccc2c(-c3nc(C4=CCCN(C[C@@H]5COCCN5)C4)c[nH]3)n[nH]c2c1 [Example 193] | 31.6 to 100 nM | 0.1 to 1 nM | 1 to 10 nM | 0.1 to 1 nM | – | –
3 | CCc1cc(O)ccc1-c1ccc2c(-c3nc(C4=CCN(CCNC)C4)c[nH]3)n[nH]c2c1F [Example 204] | 31.6 to 100 nM | 0.1 to 1 nM | 1 to 10 nM | – | – | –
4 | CCc1cc(O)ccc1-c1ccc2c(-c3nc(C4=CCN(C5CCCNC5)C4)c[nH]3)n[nH]c2c1F (centres unmarked) [Example 222] | 10 to 31.6 nM | 0.1 to 1 nM | 1 to 10 nM | – | – | –
5 | CCc1cc(O)ccc1-c1ccc2c(-c3nc(C4=CCN(S(=O)(=O)C5CNC5)C4)c[nH]3)n[nH]c2c1F [Example 180] | 31.6 to 100 nM | 1 to 10 nM | 10 to 100 nM | – | – | –
6 | CCc1cc(O)ccc1-c1ccc2c(-c3nc(C4=CCN(C[C@@H]5COCCN5C)CC4)c[nH]3)n[nH]c2c1F [Example 210] | 10 to 31.6 nM | 0.1 to 1 nM | 1 to 10 nM | – | A (A represents a pKi value ≥10 (Ki≤0.1 nM)) | –
7 | CCc1cc(O)ccc1-c1ccc2c(-c3nc(C4=CCN(CCN)C4)c[nH]3)n[nH]c2c1F [Example 203] | 31.6 to 100 nM | 0.1 to 1 nM | 1 to 10 nM | – | – | –
8 | CCc1cc(O)ccc1-c1ccc2c(-c3nc(C4=CC(C)(C)NC(C)(C)C4)c[nH]3)n[nH]c2c1 [Example 226] | 10 to 31.6 nM | 0.1 to 1 nM | 1 to 10 nM | – | – | –
9 | CCc1cc(O)ccc1-c1ccc2c(-c3nc(C4=CCN(C(=O)[C@@H](N)Cc5ccccc5)CC4)c[nH]3)n[nH]c2c1 [Example 176] | 31.6 to 100 nM | 0.1 to 1 nM | 1 to 10 nM | – | – | –
10 | CCc1cc(O)ccc1-c1ccc2c(-c3nc(C4=CCN(C(=O)[C@@H](N)Cc5ccccc5)CC4)c[nH]3)n[nH]c2c1F [Example 179] | 100 to 316 nM | 1 to 10 nM | 10 to 100 nM | – | – | –
11 | CCc1cc(O)ccc1-c1ccc2c(-c3nc(C4=CCN(CCNC)CC4)c[nH]3)n[nH]c2c1F [Example 188] | 31.6 to 100 nM | 0.1 to 1 nM | 1 to 10 nM | – | – | –
12 | CCc1cc(O)ccc1-c1ccc2c(-c3nc(C4=CCN(C(=O)[C@@H]5CCCN5)CC4)c[nH]3)n[nH]c2c1F [Compound 16, (S)-6-(2-ethyl-4-hydroxyphenyl)-7-fluoro-3-(4-(1-prolyl-1,2,3,6-tetrahydropyridin-4-yl)-1H-imidazol-2-yl)-1H-indazole] | 31.6 to 100 nM | 1 to 10 nM | 1 to 10 nM | – | – | –
13 | CCc1cc(O)ccc1-c1ccc2c(-c3nc(C4=CCN(C[C@@H]5COCCN5C)C4)c[nH]3)n[nH]c2c1F [Example 221] | 10 to 31.6 nM | 0.1 to 1 nM | 0.1 to 1 nM | – | – | –
14 | CCc1cc(O)ccc1-c1ccc2c(-c3nc(C4=CCN(C[C@@H]5COCCN5C(=O)OC(C)(C)C)CC4)c[nH]3)n[nH]c2c1 [Example 383] | 31.6 to 100 nM | 0.1 to 1 nM | 10 to 100 nM | – | – | –
15 | CCc1cc(O)ccc1-c1ccc2c(-c3nc(C4=CCN(C5CCCCC5)CC4)c[nH]3)n[nH]c2c1F [Example 122] | 31.6 to 100 nM | 0.1 to 1 nM | 1 to 10 nM | – | – | –
16 | CCc1cc(O)ccc1-c1ccc2c(-c3nc(C4=CCN(C5CCCNC5)CC4)c[nH]3)n[nH]c2c1F (centres unmarked) [Example 211] | 31.6 to 100 nM | 0.1 to 1 nM | 1 to 10 nM | – | – | –
17 | CCc1cc(O)ccc1-c1ccc2c(-c3nc(C4=CCN(C5CCN(C)CC5)CC4)c[nH]3)n[nH]c2c1 [Example 182] | 10 to 31.6 nM | – | 1 to 10 nM | 0.1 to 1 nM | – | A (A represents a pKi value ≥10 (Ki≤0.1 nM))
18 | CCc1cc(O)ccc1-c1ccc2c(-c3nc(C4=CCN(C(=O)[C@@H]5CCCN5)C4)c[nH]3)n[nH]c2c1F [Example 181] | 31.6 to 100 nM | 0.1 to 1 nM | 1 to 10 nM | – | – | –
19 | CCc1cc(O)ccc1-c1ccc2c(-c3nc(C4=CCCN(C5CCOCC5)C4)c[nH]3)n[nH]c2c1F [Example 69] | 10 to 31.6 nM | 0.1 to 1 nM | 1 to 10 nM | 0.1 to 1 nM | – | –
20 | CCc1cc(O)c(F)cc1-c1ccc2c(-c3nc(C4=CCNC4)c[nH]3)n[nH]c2c1F [Example 18, 4-(3-(4-(2,5-dihydro-1H-pyrrol-3-yl)-1H-imidazol-2-yl)-7-fluoro-1H-indazol-6-yl)-5-ethyl-2-fluorophenol] | 3.16 to 10 nM | – | 1 to 10 nM | – | – | A (A represents a pKi value ≥10 (Ki≤0.1 nM))
21 | CCc1cc(O)ccc1-c1ccc2c(-c3nc(C4=CCCN(C5CCCCC5)C4)c[nH]3)n[nH]c2c1F [Example 126] | 31.6 to 100 nM | 0.1 to 1 nM | 1 to 10 nM | – | – | –
22 | CCc1cc(O)ccc1-c1ccc2c(-c3nc(C4=CCN(C(=O)[C@@H]5CCCN5)CC4)c[nH]3)n[nH]c2c1 [Example 177] | 31.6 to 100 nM | 0.1 to 1 nM | 1 to 10 nM | – | – | –
23 | CCc1cc(O)ccc1-c1ccc2c(-c3nc(C4=CCCN(C[C@H]5COCCN5)C4)c[nH]3)n[nH]c2c1F [Example 197] | 31.6 to 100 nM | 0.1 to 1 nM | 1 to 10 nM | – | – | –
24 | CCc1cc(O)ccc1-c1ccc2c(-c3nc(C4=CCN(CCNC)CC4)c[nH]3)n[nH]c2c1 [Example 183] | 31.6 to 100 nM | 0.1 to 1 nM | 1 to 10 nM | – | – | –
25 | CCc1cc(O)ccc1-c1ccc2c(-c3nc(C4=C[C@@H](C)NCC4)c[nH]3)n[nH]c2c1F [Example 339] | 10 to 31.6 nM | 0.1 to 1 nM | – | 0.1 to 1 nM | – | –
26 | CCc1cc(O)ccc1-c1ccc2c(-c3nc(C4=C[C@H](CO)N(C5CCOCC5)C4)c[nH]3)n[nH]c2c1F [Example 274] | 10 to 31.6 nM | – | – | – | A (A represents a pKi value ≥10 (Ki≤0.1 nM)) | A (A represents a pKi value ≥10 (Ki≤0.1 nM))
27 | CCc1cc(O)ccc1-c1ccc2c(-c3nc(C4=CCN([C@H]5CC[C@H](O)CC5)C4)c[nH]3)n[nH]c2c1 [Example 128] | 3.16 to 10 nM | – | – | – | A (A represents a pKi value ≥10 (Ki≤0.1 nM)) | A (A represents a pKi value ≥10 (Ki≤0.1 nM))
28 | CCc1cc(O)ccc1-c1ccc2c(-c3nc(C4=CCNCC4)c(C)[nH]3)n[nH]c2c1 [Example 291] | 3.16 to 10 nM | – | 0.1 to 1 nM | – | – | A (A represents a pKi value ≥10 (Ki≤0.1 nM))
29 | CCc1cc(O)ccc1-c1ccc2c(-c3nc(C4=CCN(C(=O)OC)C4)c[nH]3)n[nH]c2c1 [Example 168] | 10 to 31.6 nM | 0.1 to 1 nM | – | 0.1 to 1 nM | – | –
30 | CCc1cc(O)ccc1-c1ccc2c(-c3nc(C4=CCN(CCNC(C)=O)C4)c[nH]3)n[nH]c2c1 [Example 114] | 3.16 to 10 nM | – | – | – | A (A represents a pKi value ≥10 (Ki≤0.1 nM)) | A (A represents a pKi value ≥10 (Ki≤0.1 nM))
